Data published in patent publication US11284623B2 (priority 2012, dated 2022).
Where two headings read alike, the source gives them in different places.

Legend:
Format in all cases: in vivo
[1] = system: Rhizoctonia solani (AG 2); assay: Use example FG-8: efficacy against R. solani on roots, pot trials, seed treatment; conditions: 10 g ai per 100 kg seeds
Protocol: (§1) Triticonazole was applied as commercial seed treatment formulation PREMIS 25 FS (25 g/L a.i., BASF SE, Ludwigshafen, Germany). Pyraclostrobin was applied as commercial seed treatment formulation STAMINA (200 g/L a.i., BASF SE, Ludwigshafen, Germany).
(§2) In 4 pot tests in the greenhouse in Limburgerhof, Bacillus subtilis MBI600, as SC formulation of spores with CFU of about 4×10^11 per ml, was tested in the crops corn and rape seed against different pathogens (Fusarium, Rhizoctonia, Scleroftinia) as solo product and in combination with triticonazole or pyraclostrobin. […]
(§3) The efficacy (E) was calculated using the Abbot's formula: E=(1−α/β)·100 • α corresponds to the fungicidal infection of the treated plants in % and • β corresponds to the fungicidal infection of the untreated (control) plants in %
(§4) The expected efficacies of active compound combinations were determined using Colby's formula (Colby, S. R. “Calculating synergistic and antagonistic responses of herbicide combinations”, Weeds 15, pp. 20-22, 1967) and compared with the observed efficacies. […]
(§5) For the assessment, the roots were washed out to evaluate the disease symptoms on the roots. […] In corn in addition the disease symptoms on the first leaf were evaluated according to a 2 class evaluation. […]

[2] = system: Rhizoctonia solani (AG 2); assay: Use example FG-8: root mass affected by R. solani, pot trials, seed treatment; conditions: 10 g ai per 100 kg seeds; corn infected with R. solani
Protocol: as §1
as §2, with “pyraclostrobin. The application of the different products was done as seed treatment and the seeds were treated in the BASF Seed Solutions Technology Center (SSTC) Limburgerhof using a batch lab treater.” for “pyraclostrobin.”
as §4
For the assessment, the roots were washed out to evaluate the disease symptoms on the roots. […] In corn in addition the disease symptoms on the first leaf were evaluated according to a 2 class evaluation. The figures from the class evaluation were converted into efficacies in % of the untreated control and the efficacy (E) was calculated as follows using Abbot's formula.

[3] = system: Rhizoctonia solani (AG 2); assay: Use example FG-8: efficacy against R. solani assessed on first leaf, pot trials, seed treatment; conditions: 10 g ai per 100 kg seeds, corn
Protocol: as §1, §2, §3, §4, §5

[4] = system: Fusarium graminearum; conditions: 5 g ai per 100 kg seeds; corn, mesocotyl
[5] = system: Fusarium graminearum; conditions: 5 g ai per 100 kg seeds; corn, lower roots; % of untreated control (Abbot)

Structure (SMILES)	Observed efficacy (%) [1] [%]	Root mass in % of uninfected control [2] [%]	Observed efficacy (%) [3] [%]	Observed efficacy [4] [%]	Observed efficacy [5] [%]
COC(=O)N(OC)c1ccccc1COc1ccn(-c2ccc(Cl)cc2)n1 [Pyraclostrobin]	28.7	23.3	1.9		
CC1(C)CCC(=Cc2ccc(Cl)cc2)C1(O)Cn1cncn1 (centres unmarked) [Triticonazole]				60	39.8
